Earlier results as cited in article PMC11982978, “Cancer hotspot mutations rewire ERK2 specificity by selective exclusion of docking interactions” (The Journal of Biological Chemistry, 2025).

test system: WT ERK2; details: selective conditions (-His); hits Z > 3; average of three screens; cited from earlier work
From the text: Supplement mmc2.xlsx, sheet "WT Hits" | column: Z-score

Point of comparison: “RKTKKKKSHLSLVG [ATXN7L3, D-site 14-mer in ELK1 Y2H prey]”, “Z-score (ES) of hit sequences, WT ERK2 Y2H screen” value 3.39. Against it:
- AAGRRAAPYLVLTA [TFR2, D-site 14-mer in ELK1 Y2H prey] — lower, 3.19
- AKRRIANLKIQLAK [WWC1, D-site 14-mer in ELK1 Y2H prey] — higher, 3.55
- ALLRKINQVLLFLL [GLT8D2, D-site 14-mer in ELK1 Y2H prey] — higher, 5.93
- ARGQRSVLQVPLPV [CRNKL1, D-site 14-mer in ELK1 Y2H prey] — higher, 4.21
- CELPRRNCLLPFSN [NSD1, D-site 14-mer in ELK1 Y2H prey] — higher, 3.49
- CKLKMKPRPIAILQ [TTN, D-site 14-mer in ELK1 Y2H prey] — higher, 7.96
- DTPIRKKEELLFDD [FBF1, D-site 14-mer in ELK1 Y2H prey] — higher, 3.49
- EEEFRKLTNVRIMK [PTPRE, D-site 14-mer in ELK1 Y2H prey] — higher, 8.60
- EERKTKRPSLRLFG [PPARGC1A, D-site 14-mer in ELK1 Y2H prey] — higher, 4.99
- EKIKVKSTEVEILE [MUM1, D-site 14-mer in ELK1 Y2H prey] — higher, 3.47
- EKVKRKKNVLRLCC [PRAME, D-site 14-mer in ELK1 Y2H prey] — higher, 4.69
- FTLKAKRPGLRLPD [FLRT1, D-site 14-mer in ELK1 Y2H prey] — higher, 4.42
- GLTARRLLPLRLPP [MLYCD, D-site 14-mer in ELK1 Y2H prey] — higher, 14.29
- GRPLRLPPPLRLLR [GNAS, D-site 14-mer in ELK1 Y2H prey] — lower, 3.08
- HFRHKSQLRLHLRQ [BCL6, D-site 14-mer in ELK1 Y2H prey] — higher, 5.64
- IFQRQRVDALLLDL [MED6, D-site 14-mer in ELK1 Y2H prey] — higher, 7.05
- IKMKPKPRILSIKS [MAP9, D-site 14-mer in ELK1 Y2H prey] — lower, 3.08
- IPKNRIHHKLVLPS [CENPC, D-site 14-mer in ELK1 Y2H prey] — lower, 3.05
- ITKAIRDRLLFLRQ [NBAS, D-site 14-mer in ELK1 Y2H prey] — higher, 3.64
- ITSKQRPRKLTLMG [MTOR, D-site 14-mer in ELK1 Y2H prey] — higher, 4.58
- KCSRKKKPKLSLKA [L3MBTL3, D-site 14-mer in ELK1 Y2H prey] — higher, 10.66
- KGKSKRKKDLRISC [MAP2K3, D-site 14-mer in ELK1 Y2H prey] — higher, 10.02
- KGVKHRPPPIKLPS [SUPT20H, D-site 14-mer in ELK1 Y2H prey] — higher, 18.07
- KKARGKPVRLRLSS [MELK, D-site 14-mer in ELK1 Y2H prey] — higher, 7.57
- KKFRHRPEPLFIPP [TRERF1, D-site 14-mer in ELK1 Y2H prey] — higher, 19.05
- KKGVKPKLVLNVTS [CMYA5, D-site 14-mer in ELK1 Y2H prey] — higher, 4.91
- KKRKIPKLVLRINA [DENND2A, D-site 14-mer in ELK1 Y2H prey] — higher, 11.21
- KKRKKKRLVINLSS [TTLL6, D-site 14-mer in ELK1 Y2H prey] — higher, 10.00
- KKSRVPPPPILLSR [CFAP54, D-site 14-mer in ELK1 Y2H prey] — higher, 11.93
- KKTRKLKIALALSD [PLCZ1, D-site 14-mer in ELK1 Y2H prey] — higher, 3.78
- KLDKSPFVVVSVVG [TTC28, D-site 14-mer in ELK1 Y2H prey] — higher, 3.83
- KPLKKKPTPVLLPQ [SEC63, D-site 14-mer in ELK1 Y2H prey] — lower, 3.34
- KQGGRKPKPLWLSP [KIAA0556, D-site 14-mer in ELK1 Y2H prey] — higher, 4.98
- KQRKLSPLRLSVSN [KMT2E, D-site 14-mer in ELK1 Y2H prey] — higher, 4.49
- KRSKKNSLALSLTA [ESR1, D-site 14-mer in ELK1 Y2H prey] — higher, 5.11
- KRWLRKPRPVSLFS [GTF3C1, D-site 14-mer in ELK1 Y2H prey] — higher, 5.35
- KSRQKNPRSLCIQP [MTUS1, D-site 14-mer in ELK1 Y2H prey] — higher, 4.97
- KTKRNKILKLKFPR [ATP8B1, D-site 14-mer in ELK1 Y2H prey] — higher, 3.62
- KTQRLDVAKVCLGN [IFT140, D-site 14-mer in ELK1 Y2H prey] — higher, 4.26
- LKQRRRAQKLHFLQ [DDX54, D-site 14-mer in ELK1 Y2H prey] — higher, 3.41
- LKQRTRPLLINLSK [MCTP2, D-site 14-mer in ELK1 Y2H prey] — higher, 3.77
- LQRKGGPTRLTLPS [CMIP, D-site 14-mer in ELK1 Y2H prey] — higher, 4.12
- LRKKPDLSPLKLTI [TTC41P, D-site 14-mer in ELK1 Y2H prey] — higher, 5.81
- LRPLRPKPPLLLPK [RREB1, D-site 14-mer in ELK1 Y2H prey] — higher, 9.18
- LRVRKARPQLILSR [NOL9, D-site 14-mer in ELK1 Y2H prey] — higher, 4.35
- MQKKIKIPKLSLNH [BEND5, D-site 14-mer in ELK1 Y2H prey] — higher, 3.94
- NGRREKRKQLTLPS [TBX2, D-site 14-mer in ELK1 Y2H prey] — higher, 10.21
- NKSLKNQHGLTLQL [ZNF534, D-site 14-mer in ELK1 Y2H prey] — higher, 12.39
- NQKKPALKKLTLLP [IWS1, D-site 14-mer in ELK1 Y2H prey] — higher, 4.19
- PDGKKRRKVLALPS [RBM28, D-site 14-mer in ELK1 Y2H prey] — higher, 5.03
- PDRKAKPTPLDLRN [GAB2, D-site 14-mer in ELK1 Y2H prey] — higher, 7.63
- PDRKVKPAPLEIKP [GAB1, D-site 14-mer in ELK1 Y2H prey] — higher, 10.25
- PFGSRRSSAIGIEN [RAP1GAP, D-site 14-mer in ELK1 Y2H prey] — higher, 5.61
- PGKRGRPRKLKLCK [MGA, D-site 14-mer in ELK1 Y2H prey] — higher, 8.03
- PGRRQNTIVVKVPG [BANP, D-site 14-mer in ELK1 Y2H prey] — higher, 5.25
- PIKQKRKLRIFISN [SMARCD1, D-site 14-mer in ELK1 Y2H prey] — higher, 4.04
- PKDKKRPTPLEIGY [PCLO, D-site 14-mer in ELK1 Y2H prey] — higher, 4.93
- PKGKNRPSSLNLDP [ARHGAP31, D-site 14-mer in ELK1 Y2H prey] — higher, 3.62
- PKRKEPGRSLRIKV [DNAJC27, D-site 14-mer in ELK1 Y2H prey] — higher, 6.00
- PLPRRTRRPLLLPR [HPS4, D-site 14-mer in ELK1 Y2H prey] — higher, 7.88
- PMKQKRKLRLYISN [SMARCD3, D-site 14-mer in ELK1 Y2H prey] — higher, 6.57
- PPVKKKPKLLNLKD [SIN3A, D-site 14-mer in ELK1 Y2H prey] — higher, 4.29
- PTKTKPKKLLFLGS [SMG1, D-site 14-mer in ELK1 Y2H prey] — higher, 3.46
- PWRTTKPQPLVLSQ [PROX2, D-site 14-mer in ELK1 Y2H prey] — lower, 3.19
- QGKTKRPVDLKIKN [TAGAP, D-site 14-mer in ELK1 Y2H prey] — lower, 3.38
- QLPPRKLPTLKLTP [MTX3, D-site 14-mer in ELK1 Y2H prey] — lower, 3.25
- QVKLRSRTSLTLPR [RGL1, D-site 14-mer in ELK1 Y2H prey] — higher, 4.63
- QVPKKAWRKLKLPG [DCAF11, D-site 14-mer in ELK1 Y2H prey] — higher, 5.07
- RKARRLEPGLLLPG [SOX18, D-site 14-mer in ELK1 Y2H prey] — higher, 7.78
- RKEVKRKKVVHMNK [RNF151, D-site 14-mer in ELK1 Y2H prey] — higher, 6.59
- RKKDRPRKHLTLNN [SP100, D-site 14-mer in ELK1 Y2H prey] — higher, 3.83
- RKKKLTMRPLVLQK [MAP3K19, D-site 14-mer in ELK1 Y2H prey] — higher, 3.59
- RKPRSPPRALVLPH [PEG10, D-site 14-mer in ELK1 Y2H prey] — higher, 3.94
- RKRSKPKLKLKIIN [KMT2C, D-site 14-mer in ELK1 Y2H prey] — higher, 17.15
- RLQSRKPPNLSITI [RHBDF2, D-site 14-mer in ELK1 Y2H prey] — higher, 20.42
- RPRCRRQPRLRLPT [EPM2A, D-site 14-mer in ELK1 Y2H prey] — higher, 13.05
- RQKKERPHMLNLSG [SYDE2, D-site 14-mer in ELK1 Y2H prey] — higher, 5.14
- RRQHRPPALLTLYP [DOCK6, D-site 14-mer in ELK1 Y2H prey] — higher, 3.71
- RRRGTRPPLLALLA [ROR1, D-site 14-mer in ELK1 Y2H prey] — higher, 4.89
